{
  "source": "paper PMC10897926",
  "about": "(Journal of Natural Products, 2024)",
  "key": {"P. vivax hypnozoites": {"system": "P. vivax hypnozoites", "assay": "microbe, parasite or virus in culture", "format": "cell-based, Plasmodium vivax"}, "[1]": {"system": "primary human hepatocytes"}, "[2]": {"system": "P. falciparum (strain W2) asexual blood stage parasites", "assay": "microbe, parasite or virus in culture", "format": "cell-based, Plasmodium falciparum"}, "P. vivax liver schizonts": {"system": "P. vivax liver schizonts", "assay": "microbe, parasite or virus in culture", "format": "cell-based, Plasmodium vivax"}, "in vitro [3]": {"assay": "in vitro", "conditions": "human"}, "in vitro [4]": {"assay": "in vitro", "conditions": "human", "remark": "listed apart in the source"}, "[5]": {"conditions": "Plasmodium vivax, Hepatocyte, 288 h, read-out: P. vivax hypnozoite EC50"}, "[6]": {"conditions": "Plasmodium vivax, read-out: P. vivax hypnozoite pEC50 (converted)"}, "[7]": {"conditions": "Plasmodium vivax, Hepatocyte, 288 h, read-out: P. vivax schizont EC50"}, "[8]": {"conditions": "Plasmodium vivax, read-out: P. vivax schizont pEC50 (converted)"}},
  "note": "Read-outs that look alike come from different tables or passages of the source.",
  "data": [
    {"smiles": "CC(=O)OC[C@]12CCC(C)=C[C@H]1O[C@@H]1[C@H](O)[C@@H](OC(C)=O)[C@@]2(C)[C@]12CO2", "note": "[anguidine, diacetoxyscirpenol]", "values": [
      {"measurement": "P. vivax hypnozoite pEC50", "setting": "P. vivax hypnozoites", "value": "36.3 (7.44 ± 0.75)"},
      {"measurement": "EC50", "setting": "P. vivax hypnozoites; read-out: P. vivax hypnozoite EC50", "value": 36.3, "unit": "nM"},
      {"measurement": "PHH Tox pCC50", "setting": "[1]", "value": "380 (6.42 ± 0.31)"},
      {"measurement": "CC50", "setting": "[1]; read-out: PHH Tox CC50", "value": 380, "unit": "nM"},
      {"measurement": "EC50", "setting": "[2]; read-out: P. falciparum ABS (W2) EC50", "value": 6.16, "unit": "nM"},
      {"measurement": "HepG2 Tox pCC50", "setting": "HepG2 cells", "value": "27.5 (7.56 ± 0.08)"},
      {"measurement": "cytotoxicity (in words)", "setting": "HepG2 cells", "value": "cytotoxic"},
      {"measurement": "CC50", "setting": "HepG2 cells; read-out: HepG2 Tox CC50", "value": 27.5, "unit": "nM"},
      {"measurement": "EC50", "setting": "P. vivax liver schizonts; read-out: P. vivax schizont EC50", "value": 13.5, "unit": "nM"}
    ]},
    {"smiles": "C[C@H]1[C@@H](O)O[C@@H]2O[C@@]3(C)CC[C@H]4[C@H](C)CC[C@@H]1[C@@]24OO3", "note": "[dihydroartemisinin]", "values": [
      {"measurement": "EC50", "setting": "[2]; Plasmodium falciparum, W2, 72 h, read-out: P. falciparum ABS (W2) EC50", "value": 1.44, "unit": "nM"},
      {"measurement": "EC50", "setting": "[2]; Plasmodium falciparum, W2, 72 h, read-out: P. falciparum ABS (W2) pEC50 (converted)", "value": 1.45, "unit": "nM"}
    ]},
    {"smiles": "CO[C@@H]1C[C@@H](C[C@H]2CC[C@H](C)[C@H]([C@@H](C)C(=O)O)O2)O[C@]2(O[C@](C)([C@H]3CC[C@@](C)([C@@H]4O[C@@H]([C@H]5O[C@@](O)(CO)[C@H](C)C[C@@H]5C)C[C@@H]4C)O3)C[C@H]2C)[C@@H]1C", "note": "[nigericin]", "values": [
      {"measurement": "EC50", "setting": "P. vivax hypnozoites; [5]", "value": 12.3, "unit": "nM"},
      {"measurement": "EC50", "setting": "P. vivax hypnozoites; [6]", "value": 12.3, "unit": "nM"},
      {"measurement": "PHH Tox pCC50", "setting": "[1]; human", "value": ">200 (6.70 ± 0.00)"},
      {"measurement": "CC50", "setting": "in vitro [3]; PHH Tox CC50", "value": "> 200", "unit": "nM"},
      {"measurement": "EC50", "setting": "P. vivax liver schizonts; [7]", "value": 5.13, "unit": "nM"},
      {"measurement": "EC50", "setting": "P. vivax liver schizonts; [8]", "value": 5.13, "unit": "nM"}
    ]},
    {"smiles": "COc1ccc(C[C@H](N)C(=O)N[C@H]2[C@@H](O)[C@H](n3cnc4c(N(C)C)ncnc43)O[C@@H]2CO)cc1", "note": "[puromycin]", "values": [
      {"measurement": "CC50", "setting": "in vitro [4]; HepG2 Tox CC50", "value": 398, "unit": "nM"},
      {"measurement": "CC50", "setting": "in vitro [4]; HepG2 Tox pCC50", "value": 398, "unit": "nM"},
      {"measurement": "EC50", "setting": "P. vivax hypnozoites; [5]", "value": 776, "unit": "nM"},
      {"measurement": "EC50", "setting": "P. vivax hypnozoites; [6]", "value": 776, "unit": "nM"},
      {"measurement": "CC50", "setting": "in vitro [3]; PHH Tox CC50", "value": 1740, "unit": "nM"},
      {"measurement": "CC50", "setting": "in vitro [3]; PHH Tox pCC50", "value": 1740, "unit": "nM"},
      {"measurement": "EC50", "setting": "P. vivax liver schizonts; [7]", "value": 2290, "unit": "nM"},
      {"measurement": "EC50", "setting": "P. vivax liver schizonts; [8]", "value": 2290, "unit": "nM"}
    ]}
  ]
}
